# Patent publication US20250019385A1, “SPIROCYCLIC ANNULATED 2-AMINO-3-CYANO THIOPHENES AND DERIVATIVES FOR THE TREATMENT OF CANCER” (Boehringer Ingelheim International GmbH, priority 2023, published 2025)
# Like-named read-outs stand apart in the source and are kept apart here.
# Experiments:
# NCI-H358 cells = experiment: NCI-H358 CTG proliferation assay (120 h) (NSCLC, G12C); assay type: cell-based; settings: Homo sapiens
# Procedure: (§1) NCI-H358 cells (ATCC No. CRL-5807) are dispensed into black 384-well plates, flat and clear bottom (Greiner, PNr. 781091) at a density of 200 cells per well in 60 μl RPMI-1640 ATCC-Formulation (Gibco #A10491)+10% FCS (fetal calf serum). Cells are incubated overnight at 37° C. in a humidified tissue culture incubator at 5% CO2. Compounds (10 mM stock in DMSO) are added at logarithmic dose series using the ECHO acoustic liquid handler system (Beckman Coulter), normalizing for added DMSO and including DMSO controls. All compound treatments are performed in technical duplicates. For the TO time point measurement, untreated cells are analyzed at the time of compound addition. Plates are incubated for 120 h, and cell viability is measured using CellTiter-Glo luminescent cell viability reagent (Promega product code G7570). Viability (stated as percent of control) is defined as relative luminescence units RLU of each well divided by the RLU of cells in DMSO controls. IC50 values are determined from viability measurements by non-linear regression using a four-parameter model.
# (§2) IC50 values of representative compounds according to the invention measured with these assays in the indicated cell lines are presented in Table 46.
# [1] = Solubility measurement (DMSO solution precipitation method); assay type: physicochemical; settings: aqueous buffer, kinetic from dmso stock
# Outline: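 A 10 mM DMSO stock was diluted to 250 μM final in McIlvaine buffer at pH 4.5 or 6.8, then shaken 24 h at ambient temperature. After filtering off precipitate, filtrate concentration was quantified by LC-UV against a fully dissolved reference in acetonitrile/water (1:1).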
# [2] = biological target: KRAS (G12D)::SOS1 protein-protein interaction (Homo sapiens (Human), UniProt P01116, G12D); experiment: KRAS::SOS1 AlphaScreen binding assay (KRAS G12D); settings: GDP
# Chain of KRAS (G12D)::SOS1 protein-protein interaction (P01116 other isoform, or with tags, fused parts or gaps G12D): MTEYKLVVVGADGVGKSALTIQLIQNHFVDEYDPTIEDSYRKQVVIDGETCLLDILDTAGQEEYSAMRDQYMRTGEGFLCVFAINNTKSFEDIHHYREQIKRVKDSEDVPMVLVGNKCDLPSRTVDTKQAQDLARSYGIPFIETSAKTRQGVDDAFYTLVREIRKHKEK
# Outline: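 AlphaScreen assay with KRAS G12D (1-169, 6His/avi-tagged, 10 nM), GST-SOS1 564-1049 (5 nM) and GDP (10 μM) in PBS, 0.1% BSA, 0.05% Tween 20; compound up to 100 μM top concentration, eleven fivefold dilutions in duplicate. After 30 min, glutathione acceptor and streptavidin donor beads (10 μg/mL each) were added and signal read after a further 60 min at room temperature in the dark; IC50 from 4-parameter logistic fit.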
# [3] = biological target: KRAS (G12C)::SOS1 protein-protein interaction (Homo sapiens (Human), UniProt P01116, C118S/C51S/C80L/G12C); experiment: KRAS::SOS1 AlphaScreen binding assay (KRAS G12C); settings: GDP
# Chain of KRAS (G12C)::SOS1 protein-protein interaction (P01116 other isoform, or with tags, fused parts or gaps G12C/C51S/C80L/C118S): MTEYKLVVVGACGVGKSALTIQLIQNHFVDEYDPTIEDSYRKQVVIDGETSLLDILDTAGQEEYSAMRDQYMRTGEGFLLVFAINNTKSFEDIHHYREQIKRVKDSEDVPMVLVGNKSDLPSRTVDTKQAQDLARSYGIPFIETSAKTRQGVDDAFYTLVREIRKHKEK
# Description: This assay can be used to examine the potency with which compounds according to the invention binding to (mutated) KRAS inhibit the protein-protein interaction between SOS1 and (mutated) KRAS e.g. KRAS G12C, KRAS G12D. […] Low IC50 values in this assay setting are indicative of strong inhibition of protein-protein interaction between SOS1 and KRAS:
# These assays measure the inhibitory effect of compounds on KRAS mutant protein-protein interactions using the Alpha Screen technology by Perkin Elmer.
# The following (mutant) enzyme forms of KRAS and interacting proteins are used in these assays at the given concentrations:
# KRAS (G12C) 1-169, N-terminal 6His-tag for purification, cleaved off, C-terminal avi-tag, biotinylated, mutations: C51S, C80L, C118S (in house); final assay concentration 7.5 nM and SOS1 564-1049, N-terminal 229 GST-tag, TEV cleavage site (Viva Biotech Ltd); final assay concentration 5 nM;
# Test compounds dissolved in DMSO are dispensed onto assay plates (Proxiplate 384 PLUS, white, PerkinElmer; 6008289) using an Access Labcyte Workstation with the Labcyte Echo 55x. For the chosen highest assay concentration of 100 μM, 150 nL of compound solution are transferred from a 10 mM DMSO compound stock solution. A series of eleven fivefold dilutions per compound are transferred to the assay plate, compound dilutions are tested in duplicates. DMSO are added as backfill to a total volume of 150 nL.
# The assays run on a fully automated robotic system in a darkened room below 100 Lux. To 150 nl of compound dilution 10 μl of a mix including KRAS mutant protein, SOS1 (final assay concentrations see above) and GDP nucleotide (Sigma G7127; final assay concentration 10 μM) in assay buffer (1×PBS, 0.1% BSA, 0.05% Tween 20) are added into columns 1-24.
# After 30 minutes incubation time 5 μl of Alpha Screen bead mix in assay buffer are added into columns 1-23. Bead mix consists of AlphaLISA Glutathione Acceptor Beads (PerkinElmer, Cat No AL109) and AlphaScreen Streptavidin Donor Beads (PerkinElmer Cat No 6760002) in assay buffer at a final assay concentration of 10 μg/mL each.
# Plates are kept at room temperature in a darkened incubator. After an additional 60 minutes incubation time the signal is measured in a PerkinElmer Envision HTS Multilabel Reader using the AlphaScreen specs from PerkinElmer.
# Each plate contains up to 16 wells of a negative control depending on the dilution procedure (platewise or serial) (DMSO instead of test compound; with KRAS mutant::SOS1 GOP mix and bead mix; column 23) and 16 wells of a positive control (DMSO instead of test compound; with KRAS mutant::SOS1 GOP mix w/o bead mix; column 24).
# As internal control known inhibitors of KRAS mutant::SOS1 interaction can be measured on each compound plate.
# IC50 values are calculated and analyzed with Boehringer Ingelheim's MEGALAB C50 application using a 4 parametric logistic model.
# Tables of example compounds disclosed herein contain IC50 values determined using the above assays (see Table 43).
# NCI-H727 cells = experiment: NCI-H727 CTG proliferation assay (120 h) (lung cancer, G12V); assay type: cell-based; settings: Homo sapiens
# Procedure: as §1, with “NCI-H727” for “NCI-H358”, “CRL-5815)” for “CRL-5807)”, “500” for “200”, “RPMI” for “RPMI-1640”, “(PAN P04-18047)+10%” for “(Gibco #A10491)+10%”, “serum, HyClone, SH30084.03).” for “serum).”
# as §2
# [4] = McIlvaine buffer pH 4.5, 24 h, read-out: solubility pH 4.5
# [5] = McIlvaine buffer pH 6.8, 24 h, read-out: solubility pH 6.8
IC50 (NCI-H358 cells),"solubility at 24 h [1, 4]","solubility at 24 h [1, 5]",IC50 [2],IC50 [3],IC50 (NCI-H727 cells),SMILES
11 nM,> 150 µg/mL,> 153 µg/mL,2 nM,2 nM,14 nM,C[C@H](Oc1nc(-c2onc3c2CCC[C@@]32CCCc3sc(N)c(C#N)c32)nc2c1n(C)c(=O)n2C12COC(C1)C2)[C@@H]1CCCN1C [I-15]
20 nM,> 155 µg/mL,> 148 µg/mL,2 nM,2 nM,48 nM,C[C@H](Oc1nc(-c2onc3c2CCC[C@@]32CCCc3sc(N)c(C#N)c32)nc2c1n(C)c(=O)n2[C@H]1CC2CCC1O2)[C@@H]1CCCN1C (stereo partly drawn) [I-17]
239 nM,> 151 µg/mL,97 µg/mL,8 nM,4 nM,170 nM,C[C@H](Oc1nc(-c2onc3c2CCC[C@@]32CCCc3sc(N)c(C#N)c32)nc2c1n(C)c(=O)n2[C@@H]1CC2CCC1O2)[C@@H]1CCCN1C (stereo partly drawn) [I-18]
93 nM,> 155 µg/mL,> 140 µg/mL,3 nM,2 nM,35 nM,C[C@H](Oc1nc(-c2onc3c2CCC[C@@]32CCCc3sc(N)c(C#N)c32)nc2c1n(C)c(=O)n2C1COC1)[C@@H]1CCCN1C [I-24]
55 nM,> 166 µg/mL,16 µg/mL,4 nM,2 nM,27 nM,C[C@H](Oc1nc(-c2onc3c2CCC[C@@]32CCCc3sc(N)c(C#N)c32)nc2c1n(C)c(=O)n2[C@@H]1CCOC1)[C@@H]1C[C@@H]2C[C@@H]2N1C [I-28]
2 nM,> 161 µg/mL,> 165 µg/mL,1 nM,1 nM,1 nM,C[C@H](Oc1nc(-c2onc3c2CCC[C@@]32CCCc3sc(N)c(C#N)c32)nc2c1n(C)c(=O)n2[C@@]12COC[C@@H]1C2)[C@@H]1CCCN1C [I-29]
7 nM,> 154 µg/mL,88 µg/mL,2 nM,2 nM,6 nM,CCn1c(=O)n([C@@H]2CCCOC2)c2nc(-c3onc4c3CCC[C@@]43CCCc4sc(N)c(C#N)c43)nc(O[C@@H](C)[C@@H]3CCCN3C)c21 [I-30]
60 nM,> 158 µg/mL,> 148 µg/mL,1 nM,2 nM,38 nM,CO[C@H]1C[C@@H](n2c(=O)n(C)c3c(O[C@@H](C)[C@@H]4CCCN4C)nc(-c4onc5c4CCC[C@@]54CCCc5sc(N)c(C#N)c54)nc32)C1 [I-31]

# Second part, the compound before the results:
SMILES,IC50 (NCI-H358 cells),"solubility at 24 h [1, 4]","solubility at 24 h [1, 5]",IC50 [2],IC50 [3],IC50 (NCI-H727 cells)
CO[C@H]1C[C@H](n2c(=O)n(C)c3c(O[C@@H](C)[C@@H]4CCCN4C)nc(-c4onc5c4CCC[C@@]54CCCc5sc(N)c(C#N)c54)nc32)C1 [I-16],141 nM,> 154 µg/mL,> 138 µg/mL,12 nM,5 nM,152 nM
C[C@H](Oc1nc(-c2onc3c2CCC[C@@]32CCCc3sc(N)c(C#N)c32)nc2c1n(C)c(=O)n2[C@H]1CCC[C@@H]1O)[C@@H]1CCCN1C [I-19],201 nM,> 152 µg/mL,> 146 µg/mL,3 nM,2 nM,116 nM
C[C@H](Oc1nc(-c2onc3c2CCC[C@@]32CCCc3sc(N)c(C#N)c32)nc2c1n(C)c(=O)n2[C@@H]1CCOC1)[C@@H]1CCCN1C [I-20],4 nM,> 151 µg/mL,> 154 µg/mL,1 nM,1 nM,2 nM
CCn1c(=O)n([C@@H]2CCOC2)c2nc(-c3onc4c3CCC[C@@]43CCCc4sc(N)c(C#N)c43)nc(O[C@@H](C)[C@@H]3CCCN3C)c21 [I-21],3 nM,> 157 µg/mL,> 144 µg/mL,1 nM,1 nM,4 nM
C[C@H](Oc1nc(-c2onc3c2CCC[C@@]32CCCc3sc(N)c(C#N)c32)nc2c1n(C)c(=O)n2[C@@H]1CCOC1)[C@@H]1C[C@@H](F)CN1C [I-22],7 nM,> 154 µg/mL,12 µg/mL,2 nM,1 nM,6 nM
CO[C@H]1CCN(C)[C@@H]1[C@H](C)Oc1nc(-c2onc3c2CCC[C@@]32CCCc3sc(N)c(C#N)c32)nc2c1n(C)c(=O)n2[C@@H]1CCOC1 [I-23],4 nM,> 157 µg/mL,36 µg/mL,1 nM,1 nM,3 nM
C[C@H](Oc1nc(-c2onc3c2CCC[C@@]32CCCc3sc(N)c(C#N)c32)nc2c1n(C)c(=O)n2[C@@H]1CCOC1)C12CCCN1CCC2 [I-25],6 nM,> 155 µg/mL,> 154 µg/mL,2 nM,2 nM,9 nM
C[C@H](Oc1nc(-c2onc3c2CCC[C@@]32CCCc3sc(N)c(C#N)c32)nc2c1n(C)c(=O)n2[C@@H]1CCOC1)[C@@H]1CC[C@H](C)N1C [I-26],7 nM,> 158 µg/mL,127 µg/mL,1 nM,2 nM,4 nM
C[C@H](Oc1nc(-c2onc3c2CCC[C@@]32CCCc3sc(N)c(C#N)c32)nc2c1n(C)c(=O)n2[C@@H]1CCOC1)[C@@H]1C[C@H](F)CN1C [I-27],39 nM,> 153 µg/mL,9 µg/mL,2 nM,2 nM,21 nM
